Data from US6797500B2, “Genes involved in cyclododecanone degradation pathway” (E. I. du Pont de Nemours and Company, priority 1999, dated 2004).

Key:
Rhodococcus ruber SC1 = assay: Growth of Rhodococcus ruber SC1 on cyclic ketones as sole carbon and energy source; type: cell-based; conditions: for Growth of Rhodococcus ruber SC1: cyclic ketone as sole carbon and energy source
Method: Synthetic S12 medium was used to establish enrichment. S12 medium contains the following: 10 mM ammonium sulfate, 50 mM potassium phosphate buffer (pH 7.0), 2 mM MgCl2, 0.7 mM CaCl2, 50 μM MnCl2, 1 μM FeCl3, 1 μM […], 1.72 μM CuSO4, 2.53 μM CoCl2, 2.42 μM […], and 0.0001% FeSO4. The carbon sources were added directly to the S12 medium and the bacteria were grown in sealed culture flasks.
S12 agar was used to test isolates that utilize compounds as the sole source of carbon and energy. S12 agar was prepared by adding 1.5% Noble agar (DIFCO) to S12 medium. Bacteria growing on S12 agar were supplied with volatile compounds such as cyclododecanone by sprinkling solids of the volatile compound on the interior of the petri dish lid or 5 μl of other volatile liquid as vapor. The petri dish was sealed with parafilm and incubated with the lid on the bottom.
Rhodococcus ruber SC1 isolated from cyclododecanone (C12 cyclic ketone) enrichment culture was also tested for growth on cyclic ketones of different carbon numbers as sole carbon and energy source (Table 3). It grows well on cyclopentadecanone (C15 cyclic ketone), cyclotridecanone (C13 cyclic ketone), cyclododecanone (C12 cyclic ketone) and cycloundecanone (C11 cyclic ketone).

[1] = tested on: monooxygenase and esterase on the S8C; assay: Production of different chain length hydroxy acids from cyclic ketones by recombinant E. coli cosmid clone S8C (GC/MS); type: cell-based, Escherichia coli; conditions: cyclic ketone substrate 250 mg/L
Method: Transformed XL1-Blue MR cells were grown in M9 medium with 0.4% glucose as sole carbon source. Substrate for conversion was added at early log phase (OD=0.2) and cells were allowed to grow at 30° C. for 20 additional hours. Cells were then frozen and thawed once, centrifuged, and supernatant was filtered through 0.2 μm filters. Filtrate was prepared for GC/MS analysis as described below.
Filtrate was first acidified to pH 2 using concentrated HCl. The acidified sample was extracted twice with methylene chloride or ethyl acetate. The extracts were combined and dried by adding anhydrous magnesium sulfate. Magnesium sulfate was then removed by filteration using Whatman 3MM filter paper and the remaining solvent in the filtrate was evaporated under a gentle stream of nitrogen. The dried residues were resuspended in 0.5 mL of methylene chloride as underivatized samples or derivatized with 0.5 mL of BSTFA [bis (trimethylsilyl) trifluoroacetamide] silylation reagent (SUPELCO, Bellefonte, Pa.). The GC/MS analysis was performed using a Hewlett Packard 5989B MS Engine GC/MS instrument. Samples were injected onto a 30 meter MDN-5S capillary column (SUPELCO, 0.5 μm film thickness) for separation. GC/MS analysis was conducted using electron impact ionization (70 eV).
Example 8 explores whether the cyclic substrates could be expanded to cyclic ketones of different chain length and whether corresponding hydroxy acids could be produced. S8C was grown as described above except that different cyclic ketones were added. Cyclohexanone (C6), cycloheptanone (C7), cyclooctanone (C8), cyclodecanone (C10), cycloundecanone (C11), cyclododecanone (C12), cyclotridecanone (C13) and cyclopentadecanone (C15) were added as substrates at 250 mg/L concentration. Identification of the corresponding hydroxy acids produced was performed by GC/MS analysis as described above. Large amount of corresponding hydroxy acids were detected from S8C grown in the presence of C11, C12 and C13 cyclic ketones. Medium level of 15-hydroxy acid was detected from C15 cyclic ketone grown cells. Small amount of hydroxy acids was detected from cells grown on C6 and C10 cyclic ketones. […] The substrate range of the monooxygenase and esterase on the S8C appeared to favor long chain cyclic ketones (C>10). This correlated well with the growth substrate range ([…]) of the Rhodococcus ruber SC1. The ability of Rhodococcus ruber SC1 to grow on cyclic ketones of C11-C15 was likely due to the relatively broad substrate specificity of the single set of monooxygenase and esterase encoded on S8C clone (Table 3). It is possible that mixture of the large cyclic ketones may be used as substrates in a biotransformation to produce a mixture of long chain hydroxy acids or diacids for certain applications.

Row | Structure (SMILES) | Growth of Rhodococcus ruber SC1 on cyclic ketone (in words) (Rhodococcus ruber SC1) | Growth of Rhodococcus ruber SC1 (Rhodococcus ruber SC1) | Corresponding Hydroxy Acid Produced by E. coli Cosmids [1] | Corresponding hydroxy acid detected (in words) [1]
1 | O=C1CCCCC1 [C6, cyclohexanone] | does not grow | − | +/− | Small amount
2 | O=C1CCCCCC1 [C7, cycloheptanone] | does not grow | − | − | No hydroxy acid was detected
3 | O=C1CCCCCCC1 [C8, cyclooctanone] | does not grow | − | − | No hydroxy acid was detected
4 | O=C1CCCCCCCCC1 [C10, cyclodecanone] | grows moderately well | + | +/− | Small amount
5 | O=C1CCCCCCCCCC1 [C11, cycloundecanone] | grows well | + | ++ | Large amount
6 | O=C1CCCCCCCCCCC1 [C12, cyclododecanone] | grows well | + | ++ | Large amount
7 | O=C1CCCCCCCCCCCC1 [C13, cyclotridecanone] | grows well | + | ++ | Large amount
8 | O=C1CCCCCCCCCCCCCC1 [C15, cyclopentadecanone] | grows well | + | + | Medium level
